Consider 14 compounds from PubChem BioAssay (NCI).

Common to all, as to assay: NCI anticancer screen, dose series, 48 h
Assay [1] has as its system HCC-2998 colon.
Assay [2] concerns SK-MEL-28 melanoma.
The test system of assay [3] is SNB-75 CNS.
Assay [4] concerns SF-295 CNS.
The subject of assay [5] is HL-60(TB) leukemia.
Assay [6] relates to HS 578T breast.
The subject of assay [7] is 786-0 renal.
Assay [8] concerns LOX IMVI melanoma.
The test system of assay [9] is TK-10 renal.
For assay [10], the system named is CCRF-CEM leukemia.
Assay [11] has as its system OVCAR-4 ovarian.
In assay [12] the test system is SK-MEL-2 melanoma.
For assay [13], the system named is HCT-15 colon.
For assay [14], the system named is IGROV1 ovarian.
For assay [15], the system named is OVCAR-3 ovarian.
The subject of assay [16] is OVCAR-8 ovarian.
Assay [17] concerns MDA-MB-435.
The subject of assay [18] is PC-3 prostate.
Assay [19] concerns K-562 leukemia.
In assay [20] the test system is HT29 colon.

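Exposure lasted 48 hours, with cells grown in 96-well plates and compounds tested at five concentrations. TGI denotes the concentration required for complete inhibition of growth.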

In the case of `O=C1[C@@H]2[C@@H](c3ccccc3)[C@]2(Cl)C(=O)[C@H]2[C@H](c3ccccc3)[C@@]12Cl`, the TGI in assay [1], in assay [2], in assay [3], in assay [4], in assay [5] and in [6] was more than 100 µM throughout. Further, the TGI in [7], in assay [8], in [9], in [10], in assay [11] and in [12] was more than 100 µM throughout. Further, the TGI in assay [13], in assay [14], in [15], in assay [16], in assay [17] and in [18] was more than 100 µM each time. In addition, the TGI in assay [19] and in assay [20] was more than 100 µM throughout.
`CCOC(=O)C1OC(C2(C)OC3(OC4(C=CC3O)OC(C(C)C(=O)C(C)C(O)C(C)CC(C)c3c(Cl)cc(C)c(O)c3C(=O)O)C(C)CC4C)C(C)C2OC)CC1O` (centres undefined): the TGI in assay [1] came out at 0.264 µM; in assay [2], 1.02 µM; in assay [3], 0.919 µM; in assay [4], 3.89 µM; in assay [5], 4.66 µM; in [6], 11.7 µM. In addition, the TGI in [7] was 4.47 µM; in assay [8] it was 14.2 µM; in assay [9], 7.81 µM; in assay [10], 1.04 µM; in assay [11], 4.53 µM; in [12] it was 1.13 µM. In addition, the TGI in assay [13] was more than 20.2 µM; in assay [14], 16.5 µM; in assay [15] it was 3.9 µM; in assay [16], 13.3 µM; in [17], 1.22 µM; in [18], 17.3 µM. Moreover, the TGI in assay [19] amounted to 5.16 µM; in [20] it was 3.57 µM.
For `O=S(=O)(O)ON=C1c2ccccc2-c2ccccc21`, the TGI in [1], in assay [2], in assay [3], in assay [4], in assay [5] and in assay [6] was more than 100 µM in each case. Besides, the TGI in [7], in [8], in [9], in assay [10], in assay [11] and in assay [12] was more than 100 µM each time. For the same compound, the TGI in assay [14], in assay [15], in assay [16], in assay [17], in assay [18] and in assay [19] was more than 100 µM each time. Moreover, the TGI in assay [20] was more than 100 µM.
As to `Nc1nc(Cl)cc(NCCC2(CO)CCC2)n1`, the TGI in [1], in [2], in [3], in assay [4], in assay [5] and in assay [6] was more than 100 µM each time. Also, the TGI in assay [7], in [8], in [9], in [10], in [11] and in assay [12] was more than 100 µM in each case. The TGI in assay [13], in assay [14], in [15], in assay [16], in assay [17] and in assay [18] was more than 100 µM throughout. In addition, the TGI in assay [19] and in assay [20] was more than 100 µM in each case.
As to `c1ccc2c(c1)ncn2C1CCCCO1` (centres undefined), the TGI in assay [1], in assay [2], in assay [3], in assay [4], in [5] and in assay [6] was more than 100 µM throughout. For the same compound, the TGI in [7], in assay [8], in assay [9], in assay [10], in assay [11] and in [12] was more than 100 µM throughout. For the same compound, the TGI in assay [13], in assay [14], in assay [15], in assay [16], in assay [17] and in assay [18] was more than 100 µM in each case. Further, the TGI in assay [19] and in assay [20] was more than 100 µM in each case.
On to `CCOC(=O)c1c(N2CCCC2)[nH]c(=O)c(C(c2ccco2)c2c(O)c(C(=O)OCC)c(N3CCCC3)[nH]c2=O)c1O`, for which the TGI is more than 100 µM in assay [1]; more than 100 µM in assay [2]; 60.5 µM in [3]; more than 100 µM in assay [4]; more than 100 µM in assay [5]; more than 100 µM in assay [6]. Also, the TGI in assay [7], in assay [8], in [9], in assay [10], in [11] and in assay [12] was more than 100 µM throughout. In addition, the TGI in [13], in assay [15], in assay [16], in [17], in assay [18] and in assay [19] was more than 100 µM each time. Moreover, in assay [20], the TGI is more than 100 µM.
In the case of `CCOC(=O)NC(NC1=NCCS1)(C(=O)OCC)C(F)(F)F` (centres undefined), the TGI in [1], in assay [2], in assay [3], in [4], in assay [5] and in assay [6] was more than 100 µM each time. Besides, the TGI in [7], in [8], in assay [9], in assay [10], in assay [11] and in assay [12] was more than 100 µM in each case. In addition, the TGI in [13], in assay [14], in assay [15], in [16], in assay [17] and in assay [18] was more than 100 µM in each case. Also, the TGI in [19] and in [20] was more than 100 µM each time.
With `COC(=O)/C=C/c1ccc2c(c1)CC1(C2)Cc2cc3c(cc2C1=O)CCC3` (centres undefined), the TGI is more than 100 µM in [1]; more than 100 µM in assay [2]; 71.3 µM in [3]; more than 100 µM in assay [4]; more than 100 µM in assay [5]; 78.9 µM in assay [6]. Besides, the TGI was 68.7 µM in [7]; more than 100 µM in assay [8]; more than 100 µM in assay [9]; more than 100 µM in [10]; more than 100 µM in assay [11]; more than 100 µM in assay [12]. For the same compound, the TGI in assay [13] was more than 100 µM; in assay [14] it was more than 100 µM; in assay [15], 43.7 µM; in [16], 68.8 µM; in assay [17], more than 100 µM; in assay [18], more than 100 µM. The compound also gave a TGI in [19] of more than 100 µM.
As to `COc1ccc(C(SCCO)(c2ccccc2)c2ccccc2)cc1`, the TGI in [1] came out at 31.1 µM; in [2] it was 33.6 µM; in assay [3], 25.7 µM; in assay [4] it was 28.6 µM; in assay [5], 67 µM; in [6] it was 59.2 µM. Besides, the TGI in assay [7] came out at 27 µM; in assay [8], 39.7 µM; in assay [9], 35 µM; in assay [10], 64.8 µM; in [11], 31.4 µM; in [12] it was 28 µM. The TGI in [13] was 28.7 µM; in [15] it was 31.8 µM; in [16], 38.5 µM; in assay [17] it was 27.1 µM; in [18], 25.4 µM; in assay [19] it was more than 100 µM. Also, the TGI in assay [20] came out at 39.2 µM.
In the case of `COc1ccc2oc(OC)c(CC=C(C)C)c(=O)c2c1C`, the TGI in assay [1], in assay [2], in [3], in assay [4], in assay [5] and in assay [6] was more than 100 µM throughout. For the same compound, the TGI in assay [7], in [8], in assay [9], in assay [10], in assay [12] and in [13] was more than 100 µM throughout. The TGI in assay [14], in [15], in [16], in assay [17], in [18] and in assay [19] was more than 100 µM throughout. The TGI in [20] is more than 100 µM.
In the case of `O=C1CCCC/C1=C\c1ccc(Br)cc1`, the TGI in [1] turned out to be 44.4 µM; in assay [2], 31.6 µM; in assay [3], 29.8 µM; in assay [4] it was 49.7 µM; in assay [5] it was 7.23 µM; in [6], 52.3 µM. Also, the TGI is 30.9 µM in [7]; more than 100 µM in [8]; 30.9 µM in [9]; 94.4 µM in [10]; 46.7 µM in assay [11]; 46.4 µM in assay [12]. The TGI in assay [14] is 38.3 µM; in [15], 44.3 µM; in assay [16], more than 100 µM; in assay [17], 30.6 µM; in assay [18] it was more than 100 µM; in [19] it was 31.7 µM.
For `CCOC(=O)c1ccc(C(=O)/C(C(C)=O)=C2\CCCN2C)n1C`, the TGI in [1] was more than 100 µM; in assay [2], more than 100 µM; in assay [3], 66.6 µM; in assay [4], more than 100 µM; in [5], 64.2 µM; in assay [6] it was more than 100 µM. For the same compound, the TGI in [7], in [8], in assay [9], in [10], in [11] and in assay [12] was more than 100 µM throughout. Besides, the TGI in [13], in assay [14], in [15], in [16], in assay [17] and in [18] was more than 100 µM in each case. The compound also came in with a TGI in [19] of more than 100 µM.
For `NC1CC2NC3CCCCC3NC2CC1N` (centres undefined), the TGI is more than 100 µM in [1]; more than 100 µM in assay [2]; more than 100 µM in [3]; more than 100 µM in assay [4]; 94.9 µM in [5]; more than 100 µM in assay [6]. In addition, the TGI in assay [7], in assay [8], in assay [9], in assay [10], in assay [12] and in assay [13] was more than 100 µM each time. Besides, the TGI in [14], in [15], in [16], in assay [17], in [18] and in assay [19] was more than 100 µM in each case. In assay [20], this compound returned a TGI of more than 100 µM.
As for `O=C(/C=C/c1ccc(/C=C/C(=O)c2ccc(O)cc2)cc1)c1ccc(O)cc1`, the TGI in assay [1], in assay [2], in [3], in [4], in assay [5] and in assay [6] was more than 100 µM in each case. The TGI in assay [7], in [8], in assay [9], in [10], in [12] and in assay [13] was more than 100 µM each time. For the same compound, the TGI in assay [15], in [16], in assay [17], in assay [18], in assay [19] and in assay [20] was more than 100 µM each time.
